Reference: ChEMBL document CHEMBL1201862, “PubChem BioAssay data set” (2004)
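1) Cells in 96-well plates. 2) Compound, 48 h, 5 concentrations. 3) Linear interpolation between surrounding doses. 4) Unreached endpoint = highest concentration. GI50 = concentration required for 50% inhibition of growth.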 The source made the active and inactive calls. No stated cut-off is given here; in the data, active = GI50 up to about 1.1 µM and inactive = higher.

What was measured:
Experiment in all cases: inhibition of tumour cell growth, NCI panel, 48 h
A549 = tested on: A549
ACHN = tested on: ACHN
BT-549 = tested on: BT-549
CAKI-1 = tested on: CAKI-1
DU-145 = tested on: DU-145
HCC 2998 = tested on: HCC 2998
HCT-116 = tested on: HCT-116
LOX IMVI = tested on: LOX IMVI
MDA-MB-435 = tested on: MDA-MB-435
Malme-3M = tested on: Malme-3M
NCI-H522 = tested on: NCI-H522
NCI/ADR-RES = tested on: NCI/ADR-RES
SN12C = tested on: SN12C
SNB-19 = tested on: SNB-19
SR = tested on: SR
SW-620 = tested on: SW-620
U-251 = tested on: U-251
UACC-257 = tested on: UACC-257
SK-OV-3 = tested on: SK-OV-3

Measured: GI50

CC(C)OC(=O)C1=C2c3ncccc3C(=O)N2[C@@H](Cl)[C@@H](Cl)[C@@H]1Cl
inactive: A549 > 100 µM | ACHN > 100 µM | BT-549 > 100 µM | CAKI-1 > 100 µM | DU-145 > 100 µM | HCC 2998 > 100 µM | HCT-116 > 100 µM | LOX IMVI > 100 µM | MDA-MB-435 > 100 µM | Malme-3M > 100 µM | NCI-H522 35.6 µM | NCI/ADR-RES > 100 µM | SN12C 21.2 µM | SNB-19 > 100 µM | SR 49.5 µM | SW-620 34.9 µM | U-251 > 100 µM | UACC-257 > 100 µM

NC1=NC(NCC2(CO)CCC2)=CC(OCC2(CO)CCC2)N1 (configuration not stated)
inactive: A549 > 100 µM | BT-549 > 100 µM | CAKI-1 > 100 µM | DU-145 > 100 µM | HCC 2998 > 100 µM | HCT-116 > 100 µM | LOX IMVI > 100 µM | MDA-MB-435 > 100 µM | Malme-3M > 100 µM | NCI-H522 > 100 µM | NCI/ADR-RES > 100 µM | SK-OV-3 > 100 µM | SN12C > 100 µM | SNB-19 > 100 µM | SR 82.8 µM | SW-620 > 100 µM | U-251 > 100 µM | UACC-257 > 100 µM

CCC1OC2C(CC=C(C)C)=C3OC(C)(O)C(C)(CC)C(OC(=O)c4ccccc4)C3=C3OC(=O)C=C1C32 (configuration not stated)
inactive: A549 41.4 µM | ACHN 39.6 µM | BT-549 19.1 µM | CAKI-1 36.6 µM | DU-145 32.7 µM | HCC 2998 21.8 µM | HCT-116 32.1 µM | LOX IMVI 18.4 µM | MDA-MB-435 36.1 µM | Malme-3M 39 µM | NCI-H522 18.8 µM | NCI/ADR-RES 36.3 µM | SK-OV-3 56.4 µM | SN12C 27.7 µM | SNB-19 23.8 µM | SR 59.8 µM | SW-620 57.1 µM | U-251 67.9 µM | UACC-257 38.4 µM

CC1(C)OC(=O)N(c2ccccc2)C12C=Cc1cc([N+](=O)[O-])ccc1O2 (configuration not stated)
inactive: A549 53.2 µM | ACHN 97.1 µM | BT-549 51.6 µM | CAKI-1 50.1 µM | DU-145 29.4 µM | HCC 2998 29.2 µM | HCT-116 33.3 µM | LOX IMVI 48.2 µM | MDA-MB-435 20 µM | NCI-H522 25.8 µM | NCI/ADR-RES 30.2 µM | SK-OV-3 28.9 µM | SN12C 56.5 µM | SNB-19 35.5 µM | SR 19.6 µM | SW-620 65.6 µM | U-251 35.8 µM | UACC-257 23.5 µM

CO/N=C(\C)c1ccc(Nc2c3ccccc3nc3occc23)cc1
active: A549 0.643 µM | ACHN 0.568 µM | BT-549 0.845 µM | CAKI-1 0.318 µM | DU-145 1.07 µM | HCC 2998 0.322 µM | HCT-116 0.374 µM | LOX IMVI 0.59 µM | MDA-MB-435 0.0451 µM | Malme-3M 0.313 µM | NCI-H522 < 0.0317 µM | NCI/ADR-RES 0.181 µM | SR 0.0373 µM | SW-620 0.33 µM | U-251 0.522 µM
inactive: SK-OV-3 1.16 µM | SN12C 1.4 µM | SNB-19 2.05 µM | UACC-257 14.3 µM

O=c1c2c3c(sc2nc2n1N=C(c1ccc(Cl)cc1)CS2)CCCC3
inactive: A549 > 100 µM | ACHN > 100 µM | BT-549 > 100 µM | CAKI-1 > 100 µM | DU-145 > 100 µM | HCC 2998 > 100 µM | HCT-116 > 100 µM | LOX IMVI > 100 µM | MDA-MB-435 > 100 µM | Malme-3M > 100 µM | NCI-H522 > 100 µM | NCI/ADR-RES > 100 µM | SK-OV-3 > 100 µM | SN12C > 100 µM | SR > 100 µM | SW-620 > 100 µM | U-251 > 100 µM | UACC-257 > 100 µM

COC(OC)(c1ccccc1)C(I)I
inactive: A549 18.5 µM | ACHN 16.5 µM | BT-549 11 µM | CAKI-1 11.8 µM | DU-145 24.5 µM | HCC 2998 23.1 µM | HCT-116 4.91 µM | LOX IMVI 13.4 µM | MDA-MB-435 4.37 µM | Malme-3M 3.15 µM | NCI-H522 2.5 µM | NCI/ADR-RES 16.3 µM | SK-OV-3 12.1 µM | SN12C 20.1 µM | SNB-19 35.3 µM | SR 2.04 µM | SW-620 2.92 µM | U-251 16.5 µM | UACC-257 3.45 µM

COc1ccccc1C1c2cc3c(cc2OC(N2CCCC2)C1C)OCO3 (configuration not stated)
inactive: A549 18.4 µM | ACHN 14.5 µM | BT-549 16.8 µM | CAKI-1 9.84 µM | DU-145 15.2 µM | HCC 2998 15.8 µM | HCT-116 14.8 µM | LOX IMVI 16.9 µM | MDA-MB-435 12.4 µM | Malme-3M 18.4 µM | NCI-H522 9.95 µM | NCI/ADR-RES 18.5 µM | SN12C 17.1 µM | SNB-19 17.9 µM | SR 6.21 µM | SW-620 18 µM | U-251 18.8 µM | UACC-257 20.4 µM
